This note sets out measurements from patent US20060019855A1, “Composition for a bactericidal, disinfecting, and cleansing foam agent” (priority 2004, published 2006).

Common to all, as to assay: Antibacterial effect test
One experiment has as its system Escherichia coli FMK1254. In kind it is cell-based. The settings on record: for antibacterial effects (in words): E. coli. As for the experimental part: (§1) Antibacterial Effect Test
(§2) Composition of Example 1: The composition of Example 1 was filled in a pump foamer (manufactured by DAIWA CAN COMPANY).
(§3) Ethanol gel: A hand cleansing gel made by […] CO. LTD. (ethanol content: 70%, formulated with aloe extract).
(§4) MacConkey Agar (Difco) was employed for E. coli FMK1254 and Pathogenic E. coli 0157:H7 SAKAI.
(§5) 1) The respective strains were incubated overnight in TSB at 37° C. The bacterial suspensions were diluted with physiologic saline to have a concentration of approximately 10^4 CFU/ml each.
(§6) 2) Next, 4.5 g each of the test samples were added to dishes (Composition of Example 1 and Control composition were added in a foamed state.). Thereafter, 0.5 ml each of the bacterial suspensions obtained in the process 1) was inoculated thereinto and mixed well. For every combination (12 combinations in total) of the four test samples and the three bacterial suspensions, two sample dishes were prepared in this manner.
(§7) 3) Regarding the first ones of these sample dishes, the number of bacteria was counted immediately after inoculation of the bacterial suspensions, and also after one and two hours of incubation at 37° C. For incubation, the dishes were put in an incubator, with the lids slightly open. To count the number of bacteria of each strain, two agar media were respectively inoculated with 0.1 ml of the bacterial suspension and incubated for 24 hours at 37° C. Later, the number of colonies in both agar media was counted and averaged.
(§8) 4) The second ones of the sample dishes prepared in the process 2) were incubated for two hours at 37° C. after inoculation of the bacterial suspensions. Thereafter, 0.5 ml each of the corresponding bacterial suspensions was again inoculated thereinto and mixed well. The number of bacteria was counted immediately after reinoculation of the bacterial suspensions, and also after one and two hours of incubation at 37° C., in the same manner as in the process 3).
(§9) In Tables 2-4, “B” indicates the theoretical number of bacteria in the mixtures of the bacterial suspensions and the test samples. The symbol “*” indicates reinoculation.

Experiment [1] relates to Pathogenic E. coli O157:H7 Sakai. Type of experiment: cell-based, Escherichia coli. The following applies: for number of bacteria: Pathogenic E. coli O157:H7 Sakai; for antibacterial effects (in words): pathogenic E. coli. As for the experimental part:
as §1, §2
Ethanol gel: A hand cleansing gel made by FUMAKILLA CO. LTD. (ethanol content: 70%, formulated with aloe extract).
Pathogenic Escherichia coli 0157:H7 Sakai
as §4, §5, §6, §7, §8, §9

The test system of experiment [2] is Staphylococcus aureus ATCC25923. In kind it is cell-based. The following applies: for antibacterial effects (in words): S. aureus. As for the experimental part:
as §1, §2, §3
Staphylococcus aureus ATCC25923
Nutrient Agar (Difco) was employed for S. aureus ATCC25923.
as §5, §6, §7, §8, §9

Setting [3] is: after two hours of reinoculation.

For the molecule `CCO` [70% Ethanol, Ethanol], the number of bacteria with Escherichia coli FMK1254 (E. coli FMK1254, 1 hour at 37° C. after reinoculation) is 4095 CFU/ml; in the experiment on Escherichia coli FMK1254 (E. coli FMK1254, 1 hour of incubation at 37° C. after inoculation) it was “≦9 CFU/ml”; in the experiment on Escherichia coli FMK1254 (E. coli FMK1254, 2 hours at 37° C. after reinoculation), 2195 CFU/ml; with Escherichia coli FMK1254 (E. coli FMK1254, 2 hours of incubation at 37° C. after inoculation), “≦9 CFU/ml”; with Escherichia coli FMK1254 (E. coli FMK1254, immediately after inoculation (0)) it was “≦9 CFU/ml”; with Escherichia coli FMK1254 (E. coli FMK1254, immediately after reinoculation (0*)), 2280 CFU/ml. For the same molecule, the number of bacteria entry in experiment [1] (1 hour at 37° C. after inoculation) is listed as “≦9 CFU/ml”; in experiment [1] (1 hour at 37° C. after reinoculation), “≧30000 CFU/ml”; in experiment [1] (2 hours at 37° C. after inoculation), “≦9 CFU/ml”; in experiment [1] (2 hours at 37° C. after reinoculation), “≧30000 CFU/ml”; in experiment [1] (immediately after inoculation (0)), “≦9 CFU/ml”; in experiment [1] (immediately after reinoculation (0*)), “≧30000 CFU/ml”. In addition, the number of bacteria entry is listed as “≦9 CFU/ml” in experiment [2] (S. aureus ATCC25923, 1 hour at 37° C. after inoculation); 75 CFU/ml in experiment [2] (S. aureus ATCC25923, 1 hour at 37° C. after reinoculation); “≦9 CFU/ml” in experiment [2] (S. aureus ATCC25923, 2 hours at 37° C. after inoculation); 45 CFU/ml in experiment [2] (S. aureus ATCC25923, 2 hours at 37° C. after reinoculation); “≦9 CFU/ml” in experiment [2] (S. aureus ATCC25923, immediately after inoculation (0)); 180 CFU/ml in experiment [2] (S. aureus ATCC25923, immediately after reinoculation (0*)). For the same molecule, the “antibacterial effects (in words)” value with Escherichia coli FMK1254 (after two hours of inoculation) is reported as “excellent”; in the experiment with Escherichia coli FMK1254 (setting [3]), “totally lost”; in experiment [1] (after two hours of inoculation) it was “excellent”; in experiment [1] (setting [3]) it was “totally lost”; in experiment [2] (after two hours of inoculation) it was “excellent”; in experiment [2] (setting [3]) it was “not sufficient”.
